Drawing on BindingDB's records for doi:10.7270/Q24M9315 (The Scripps Research Institute Molecular Screening Center, 2011), this text covers EC50 for 7 compounds.

pEC50: −log10 of the molar value. Where only a bound is given, the exact number is not on record here.

In the test the target is T1, Caspase-3 (Homo sapiens, UniProt P42574).
T1 sequence (P42574 whole entry): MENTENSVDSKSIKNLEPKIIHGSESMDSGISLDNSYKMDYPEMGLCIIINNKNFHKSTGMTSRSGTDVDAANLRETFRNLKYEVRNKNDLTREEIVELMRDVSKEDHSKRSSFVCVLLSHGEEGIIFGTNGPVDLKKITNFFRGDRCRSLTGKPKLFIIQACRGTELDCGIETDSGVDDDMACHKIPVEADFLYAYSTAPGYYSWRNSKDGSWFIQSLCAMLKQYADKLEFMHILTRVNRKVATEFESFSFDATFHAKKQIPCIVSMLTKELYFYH
The experiment in a line: activators of human procaspase-3 D3A mutant – biochemical, absorbance, PC-3 D3A mutant, counter-screen for dual procaspase-3/7 activator project, dose response (AID 504328). On the technique in general: The purpose of a counterscreen is to sort out artefacts and off-target activity.
Consider `COc1ccccc1-n1c(O)c2n(-c3ccccc3)[nH]c(C(=O)c3ccccc3)c-2c1=O`, for which the negative logarithm of the EC50 (pEC50) was under 4.07.

In the case of `COC(=O)c1[nH]n(-c2ccc(Cl)cc2)c2c(O)n(-c3ccccc3OC)c(=O)c1-2` [1-(4-Chloro-phenyl)-5-(2-methoxy-phenyl)-4,6-dioxo-1,3a,4,5,6,6a-hexahydro-pyrrolo[3,4-c]pyrazole-3-carboxylic acid methyl ester], the pEC50 is under 4.07.

Turning to `O=C(c1ccccc1)c1[nH]n(-c2ccccc2)c2c(O)n(-c3ccccc3)c(=O)c1-2` [3-benzoyl-1,5-diphenyl-3a,6a-dihydropyrrolo[3,4-c]pyrazole-4,6-dione], the negative logarithm of the EC50 (pEC50) was under 4.07.

As for `CCOC(=O)C(C#N)C=Nc1cc(OC)ccc1OC` (configuration not stated) [(E)-2-Cyano-3-(2,5-dimethoxy-phenylamino)-acrylic acid ethyl ester], the pEC50 was under 4.07.

`C=CC=Nc1c(Cl)c(O)n(-c2cccc(Cl)c2Cl)c1O` [MLS000533809]: the negative-log EC50 (pEC50) is under 4.07.

Take `Cc1[nH]nc2c1C(c1c[nH]c3ccccc13)C(C#N)C(=N)O2` (configuration not stated) [MLS001030009]: the negative-log EC50 (pEC50) is 4.64.

With `CCOc1ccc(NC=C2C(=O)CC(c3ccco3)CC2=O)cc1` (configuration not stated) [SMR000268302], the pEC50 was under 4.07.

The pEC50 is the negative decadic logarithm of the EC50, by convention in mol/L. Low readings indicate a large EC50, high ones a small EC50.
